Data on two molecules can be found in patent US20040235908A1, “3,4-Di-substituted cyclobutene-1,2-diones as CXC-chemokine receptor antagonists” (Schering Corporation, priority 2001, published 2004).

pIC50: −log10 of the molar value.

In the experiment the target is T1, hCXCR2 (Homo sapiens, UniProt P25025).
T1 construct: purchased Biosignal; host or cells: CHO cells overexpressing hCXCR2 (membrane preparation)
T1 sequence (P25025 1-360): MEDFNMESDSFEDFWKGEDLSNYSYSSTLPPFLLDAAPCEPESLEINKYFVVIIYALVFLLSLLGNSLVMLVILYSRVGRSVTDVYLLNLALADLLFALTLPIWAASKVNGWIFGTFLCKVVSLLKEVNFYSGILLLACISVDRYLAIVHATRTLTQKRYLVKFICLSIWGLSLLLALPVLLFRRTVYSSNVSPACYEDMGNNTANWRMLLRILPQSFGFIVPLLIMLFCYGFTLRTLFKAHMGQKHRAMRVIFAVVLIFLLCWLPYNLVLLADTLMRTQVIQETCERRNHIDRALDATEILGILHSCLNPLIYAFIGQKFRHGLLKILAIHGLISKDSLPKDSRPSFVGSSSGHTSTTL
The experiment is described as follows: CXCR2 SPA receptor binding assay. To be noted: hCXCR2-CHO overexpressing membranes, [125I]-IL-8 ligand 0.1 nM. Here is the method:
For each well of a 96 well plate, a reaction mixture of 4 μg hCXCR2-CHO overexpressing membranes (Biosignal) and 200 μg/well WGA-SPA beads (Amersham) in 100 μl was prepared in CXCR2 assay buffer (25 mM HEPES, pH 7.4, 2 mM CaCl2, 1 mM MgCl2). A 0.4 nM stock of ligand, [125I]-IL-8 (NEN), was prepared in the CXCR2 assay buffer. […] stock solutions of test compounds were prepared in DMSO (Sigma). A 6× stock solution of GRO-α (R&D) was prepared in CXCR2 assay buffer. The above solutions were added to a 96-well assay plate (PerkinElmer or Coming) as follows: 10 μl test compound or DMSO, 40 ul CXCR2 assay buffer or GRO-α stock, 100 μl of reaction mixture, 50 μl of ligand stock (Final [Ligand]=0.1 nM). When 40× stock solutions of test compounds in DMSO were prepared, then the above protocol was used except instead 5 μl test compound or DMSO and 45 μl CXCR2 assay buffer were used. The assay plates were shaken for 5 minutes on a plate shaker, then incubated for 2-8 hours before cpm/well were determined in Microbeta Trilux counter (PerkinElmer). % Inhibition of total binding minus non-specific binding (250 nM Gro-α or 50 μM antagonist) was determined and IC50 values calculated.

As for `O=C(c1cccc(Nc2c(Nc3ccccc3)c(=O)c2=O)c1O)N1CCOCC1` [Example 45], the pIC50 is 8.00.

`CC(C)c1ccccc1Nc1c(Nc2cccc(C(=O)N(C)C)c2O)c(=O)c1=O` [Example 64] showed a negative logarithm of the IC50 (pIC50) of 7.55.

For orientation: pIC50 means −log10 of the IC50, conventionally taken in molar units. High values mean a small IC50, low ones a large IC50.
